# According to US20240181056A1, “CHIMERIC ANTIGEN RECEPTOR (CAR)-T CELLS” (Imperial College Innovations Limited, priority 2021, published 2024):
# Experiments:
# [1] = tested on: T cells transduced with CART4 (tEGFR high cells); test: In vitro suicide assay (iC9 safety switch, CID-induced apoptosis); assay type: cell-based, human
# Description: CART4 with or without iC9 cells were generated with retroviral transduction with CART4 or CART4 w/o iC9 construct. CAR-T cells were kept expanded for five to seven days after transduction. A […] (CID), the B/B homodimerizer AP20187 (Clontech Laboratories), was added at a various concentration to T cell culture. The induction of apoptosis induced by CID was evaluated 24 hr later using Annexin-v/7-AAD (BD Biosciences) staining and flow cytometry analysis. Survival cells were quantified by counting beads (BD Biosciences). Survival index was calculated as follows: number of living tEGFR^+ cells/number of living tEGFR^+ cells in untreated control samples.
# In order to evaluate the efficiency of iC9 safety switch in vitro, a CART4 variation without the iC9 gene (CART4 w/o iC9) was cloned as a control. T cells transduced with CART4 or CART4 without iC9 construct were exposed to increasing concentrations of the CID AP20187 (0.1 nM to 100 nM) for 24 hours. Cell death was accessed by flow cytometry analysis with 7AAD and Annexin-V. The tEGFR-positive percentage in the survived population dropped along with the increasing concentration of the CID. […] Consistent with the observations from other studies, the cells that escape killing were those expressing low levels of the transgene with a 50% reduction in mean fluorescence intensity (MFI) of tEGFR after CID (FIG. 1E). […]
# [2] = biological target: CD4 antigen (T-cell surface glycoprotein CD4 [Homo sapiens]) (human) (UniProt P01730); test: cell-based or functional assay
# [3] = biological target: TCR Vbeta 7.1 chain (H. sapiens rearranged TCR Vbeta 7.1) (human); test: cell-based or functional assay
# TCR Vbeta 7.1 chain (H. sapiens rearranged TCR Vbeta 7.1) (human), sequence (A0A577 whole entry, form in doubt): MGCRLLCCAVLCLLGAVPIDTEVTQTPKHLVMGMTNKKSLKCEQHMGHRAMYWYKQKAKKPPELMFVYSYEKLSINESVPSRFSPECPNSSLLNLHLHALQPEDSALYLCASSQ
Compound,reduction in mean fluorescence intensity (MFI) of tEGFR in cells that escape killing ([1]; after CID),"tEGFR high cells eliminated ([1]; single 100 nM dose of CID, 24 hours, flow cytometry 7AAD/Annexin-V)",CD4-positive cells remaining after transduction with control CAR (flow cytometry) [2],TCR Vβ7.1-positive cells remaining after transduction with control CAR (flow cytometry) [3]
CC[C@H](C(=O)N1CCCC[C@H]1C(=O)O[C@H](CCc1ccc(OC)c(OC)c1)c1cccc(OCC(=O)NCC(CNC(=O)COc2cccc([C@@H](CCc3ccc(OC)c(OC)c3)OC(=O)[C@@H]3CCCCN3C(=O)[C@@H](CC)c3cc(OC)c(OC)c(OC)c3)c2)CN(C)C)c1)c1cc(OC)c(OC)c(OC)c1 [AP20187],50%,69.1%,–,–
CART20 chimeric antigen receptor (anti-CD20 CAR with scFv of monoclonal antibody Leu16),–,–,45%,1.2%
